Experiments:
[1] = Formation Constant (Log KML) of metal chelant complex with calcium; assay type: physicochemical; details: formation constant for calcium, concentrations in mol/dm^3, logarithm
Text: (§1) The Formation Constant of a metal chelant interaction is defined as: [formula] where: [ML]=concentration of metal ligand complex at equilibrium [M]=concentration of free metal ion [L]=concentration of free ligand in a fully deprotonated form KML=formation constant for the metal chelant complex. All concentrations are expressed in mol/dm^3. Formation Constants are conveniently expressed as logarithms.

[2] = Formation Constant (Log KML) of metal chelant complex with copper; assay type: physicochemical; details: formation constant for copper, concentrations in mol/dm^3, logarithm
Text: as §1

## N[C@@H](Cc1c[nH]cn1)C(=O)O [Histidine]
[1]
  Log KML Ca: 1.2
[2]
  Log KML Cu: 10.2

## NCC(=O)O [Glycine]
[1]
  Log KML Ca: 1.1
[2]
  Log KML Cu: 8.2

## N[C@@H](Cc1c[nH]c2ccccc12)C(=O)O [Tryptophan]
[2]
  Log KML Cu: 8.2

## C[C@H](N)C(=O)O [Alanine]
[1]
  Log KML Ca: 1.3
[2]
  Log KML Cu: 8.1

## NC(=O)C[C@H](N)C(=O)O [Asparagine]
[2]
  Log KML Cu: 7.8

## N[C@@H](CO)C(=O)O [Serine]
[1]
  Log KML Ca: 1.4
[2]
  Log KML Cu: 7.9

## O=C(O)CC(NCCNC(CC(=O)O)C(=O)O)C(=O)O (centres unmarked) [EDDS, ethylenediamine-N,N′-disuccinic acid]
[1]
  Log KML Ca: 4.6
[2]
  Log KML Cu: 18.4

## O=C(O)[C@@H]1CCCN1 [Proline]
[2]
  Log KML Cu: 8.8

## NC(=O)CC[C@H](N)C(=O)O [Glutamine]
[2]
  Log KML Cu: 7.7
